The target of assay [1] is T1, A. sativa phototropin 1 LOV2 (AsLOV2) (Avena sativa, UniProt O49003, Q513L).
T1 construct: gene NPH1-1; LOV2 domain residues 404-546 with flanking A'alpha and Jalpha helices; E. coli expression; N-terminal His6-SUMO tag cut by Senp2, leaving N-terminal GEF extension
Description: X-ray crystal structure. In kind it is binding. Particulars: dark-adapted 0.90 A (7PGZ) and blue-light freeze-trapped 0.98 A (7PH0); light: thioadduct with C450 (covalent, modelled noncovalent); sodium acetate pH 4.6-5.0.

Assay [2] has as its target T2, A. sativa phototropin 1 LOV2 (AsLOV2) (Avena sativa, UniProt O49003).
T2 construct: gene NPH1-1; LOV2 domain residues 404-546 with flanking A'alpha and Jalpha helices; E. coli expression; N-terminal His6-SUMO tag cut by Senp2, leaving N-terminal GEF extension
As to the kind of experiment: X-ray crystal structure. In kind it is binding. Particulars: dark-adapted 1.00 A (7PGX) and blue-light freeze-trapped 1.09 A (7PGY); light: thioadduct with C450 (covalent, not seen in density, modelled noncovalent); sodium acetate pH 4.6-5.0.

T1 sequence (O49003 entry or part of it Q513L): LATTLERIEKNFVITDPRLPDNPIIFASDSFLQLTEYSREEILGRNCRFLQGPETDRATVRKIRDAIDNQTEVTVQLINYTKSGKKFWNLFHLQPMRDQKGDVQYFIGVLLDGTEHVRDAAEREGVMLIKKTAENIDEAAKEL
T2 sequence (O49003 entry or part of it): as the sequence (O49003 entry or part of it Q513L) above, with L110Q counted along it

For the compound `Cc1cc2nc3c(=O)[nH]c(=O)nc-3n(C[C@H](O)[C@H](O)[C@H](O)COP(=O)(O)O)c2cc1C` [flavin mononucleotide], the X-ray crystal structure entry in assay [1] was “the cofactors were generally modeled as noncovalently bound oxidized flavin mononucleotides”; in assay [2], 7pgx (wild-type, dark), 7pgy (wild-type, light), 7pgz (Q513L, dark), and 7ph0 (Q513L, light).

Source of the values: PMC9098866, “Signal transduction in light-oxygen-voltage receptors lacking the active-site glutamine” (Nature Communications, 2022).
